From patent US20080255078A1, “Triphenylethylene Compounds Useful as Selective Estrogen Receptor Modulators” (priority 2005, published 2008)

melting point | Structure (SMILES)
280 to 281 °C | CCC(=C(c1ccc(O)cc1)c1ccc(O)cc1)c1cccc(/C=C/C(=O)O)c1 [Example 1, (2E)-3-{3-[1-Ethyl-2,2-bis(4-hydroxyphenyl)ethenyl]phenyl}-2-propenoic acid]
173 to 174 °C | CCC(=C(c1ccc(O)cc1)c1ccc(O)cc1)c1cccc(-c2c(C)noc2C)c1 [Example 3, 4,4′-{2-[3-(3,5-Dimethyl-4-isoxazolyl)phenyl]-1-butene-1,1-diyl}diphenol]
